Results on three compounds are retold here after patent US11919865B2, “Processes for preparing AG-10, its intermediates, and salts thereof” (EIDOS THERAPEUTICS, INC., priority 2017, dated 2024).

The nature of data set [1]: Oral dosing of AG-10 forms, plasma pharmacokinetics by LC-MS/MS. The class given is in vivo, Dog. The note with it: for Exposure (0-24 h) / Cmax: dog. The procedure:
(§1) Rats or Dogs were orally dosed with the zwitterion, Na salt, or HCl salt for of AG-10. Plasma samples from each rat/dog, as applicable, were measured between 0 and up to 96 hours after dosing with the specified form of AG-10. After isolation from the animal, each sample (50 μL) was protein precipitated by adding 500 μL 0.1% formamide in acetonitrile to the sample. After addition for the formamide solution, the sample was vortexed and centrifuging at 1400 rpm for 15 min at 4° C. 100 μL of the supernatant was removed and diluted with 100 μL water. 5 μL of the diluted sample was injected for LC-MS/MS analysis.

Data set [2] is described as follows: Intravenous dosing of AG-10 forms, plasma pharmacokinetics by LC-MS/MS. The class given is in vivo. Here is the method: as §1, with “Mice, Rats” for “Rats”, “were intravenously” for “were orally”, “each mouse/rat/dog,” for “each rat/dog,”, “and 24” for “and up to 96”, “diluted samples” for “diluted sample”
A short description of data set [3]: Oral dosing of AG-10 forms, plasma pharmacokinetics by LC-MS/MS. The class given is in vivo, Rat. The procedure: as §1
Data set [4] is described as follows: Bioavailability of AG-10, mean plasma concentration after intravenous and oral dosing. The class given is in vivo. The following applies: 1 mg/kg intravenously and 5 mg/kg orally, plasma 0-24 hours. Here is the method:
The mean plasma concentration of AG-10 was measured from 0-24 hours after dosing with 1 mg/kg of AG-10 intravenously and 5 mg/kg of AG-10 orally. The calculated pharmacokinetic data is shown in FIG. 2B, FIG. 2D, and FIG. 2F.

The nature of data set [5]: Bioavailability of AG-10 in male and female dogs at different oral dosing levels. The following applies: oral 5 mg/kg or 20 mg/kg, plasma 2-24 hours. The class given is in vivo. The procedure: The mean plasma concentration of AG-10 was measured from 2-24 hours after oral dosing with 5 mg/kg or 20 mg/kg of AG-10. The calculated pharmacokinetic data is shown in FIG. 3B, FIG. 3D and FIG. 3F.

Data set [6] is described as follows: Intravenous dosing of AG-10 forms, plasma pharmacokinetics by LC-MS/MS. The following applies: in vivo, dog, 1 mg/kg, the Cmax reported is an extrapolated C0. Here is the method:
as §1, with “Mice, Rats” for “Rats”, “were intravenously” for “were orally”, “each mouse/rat/dog,” for “each rat/dog,”, “and 24” for “and up to 96”, “diluted samples” for “diluted sample”

Each structure is given as a SMILES string. Values joined by “and” are separate entries in the source; they are usually repeats but may differ in a detail not shown here. Identical values can stand only once.

What is called Cmax is the peak of the concentration-time curve.

As for `Cc1n[nH]c(C)c1CCCOc1cc(C(=O)O)ccc1F` [Zwitterion, 3-(3-(3,5-dimethyl-1H-pyrazol-4-yl)propoxy)-4-fluorobenzoic acid], in data set [1] (25 mg/kg), the “Exposure (0-24 h)” value is reported as 89,786 ng · h/mL. Besides, the Cmax in data set [1] (plasma, 25 mg/kg) is 17500 ng/mL and 60 µM; in data set [2] (mouse, 3 mg/kg) it was 4480 ng/mL and 15.4 µM; in data set [2] (plasma, rat, 3.43 mg/kg, read-out: Cmax), 3090 ng/mL and 10.6 µM; in data set [3] (plasma, rat, 200 mg/kg) it was 26400 ng/mL and 90.3 µM.

Take `Cc1n[nH]c(C)c1CCCOc1cc(C(=O)O)ccc1F` [AG-10, 3-(3-(3,5-dimethyl-1H-pyrazol-4-yl)propoxy)-4-fluorobenzoic acid]: the Bioavailability result in data set [4] (dogs), in data set [4] (mice), in data set [4] (rats) and in data set [5] was “high bioavailability” in each case.

In the case of `Cc1n[nH]c(C)c1CCCOc1cc(C(=O)O)ccc1F.Cl` [HCl salt, 3-[3-(3,5-dimethyl-1H-pyrazol-4-yl)propoxy]-4-fluorobenzoic acid hydrochloride salt], the peak concentration (Cmax) in data set [6] was 5960 ng/mL and 20.4 µM; in data set [1] (in vivo, 20 mg/kg), 16100 ng/mL and 55.1 µM; in data set [1] (in vivo, 25 mg/kg), 25100 ng/mL and 85.8 µM; in data set [1] (in vivo, 60 mg/kg) it was 41800 ng/mL and 143 µM; in data set [1] (in vivo, 200 mg/kg), 154000 ng/mL and 528 µM; in data set [2] (in vivo, rat, 1 mg/kg, the Cmax reported is an extrapolated C0, read-out: Cmax (extrapolated C0)), 4280 ng/mL and 14.6 µM. In addition, in data set [3] (in vivo, rat, 200 mg/kg), the peak concentration (Cmax) was 216000 ng/mL and 741 µM. Also, the “Exposure (0-24 h)” value in data set [1] (20 mg/kg) is recorded as 69,088 ng · h/mL; in data set [1] (25 mg/kg), 128,374 ng · h/mL; in data set [1] (60 mg/kg), 155,814 ng · h/mL; in data set [1] (200 mg/kg), 1,020,640 ng · h/mL; in data set [3] (rat, 200 mg/kg) it was 395,503 ng · h/mL. Also, in data set [1] (dogs, Table 3 row 6 vs row 4), the “Cmax values as compared to the zwitterion” value was “surprising and significant improvement in Cmax values”. Also, the “Cmax values as compared to the zwitterion and the Na salt” value in data set [3] (rats, Table 3 row 3 vs row 1) was “surprising and significant improvement in Cmax values”.
